“Also recorded” adds a separate entry of the source. Where two headings read alike, the source gives them in different places.
Columns and labels:
aromatase [1] = test system: aromatase; parameters: method as in Lu et al. [2012]; details: recombinant and placental microsomal preparations; ref Lu et al. [2012]; cited from earlier work
human (non-selective) ER = experiment: ER radioligand ([3H]estradiol) receptor-binding assay
Protocol: The chemicals were tested for their ability to bind to different targets. […] Chemicals were incubated at 10 µM with cells overexpressing ER or AR for 24 h at 4°C, after which, the binding of the radiolabeled ligand ([^3H]estradiol for ER and [^3H]methyltrienolone for AR) was measured by liquid scintillation counting. An increase or decrease higher than 50% were considered to represent significant effects. Four chemicals were tested in additional incubations at several concentrations up to the maximum soluble concentration for IC50 or EC50 determination for the associated target. Receptor binding was calculated as a % inhibition of the binding of a radioactively labeled ligand specific for each target.
Each test chemical was tested in a single assay in duplicate.

H295R cells = experiment: H295R steroidogenesis assay (oestrogen and androgen production); format: cell-based, human; details: Homo sapiens, NCI-H295R, 48 h
Protocol: The in vitro H295R Steroidogenesis Assay is based on the human adenocarcinoma cell line, NCI-H295R, in which the human steroidogenesis pathway is fully functional (OECD 2022). The effect of the test chemical on the production of 17β-estradiol and testosterone is measured using ERα CALUX and AR CALUX technology.
The test chemical was tested in two independent assays, each in triplicate.

ER [2] = experiment: ToxCast ER assays and final ToxCast call; details: for Final "true" call (ToxCast) ER: from active ToxCast assays, cytotoxicity, ToxCast Pathway Model and CERAPP Potency Level; for ToxCast result (ER): overall call from ToxCast data (Supplementary Table 2)
Text: (§1) A rich source of data can be found in the EPA's ToxCast database (US EPA). This contains ED data for ~ 1800 chemicals in more than 700 high-throughput assay endpoints that cover a range of high-level cell responses. The US EPA is running an Endocrine Disruption Screening Program (EDSP), with the aim of prioritising chemicals using high-throughput screening methods and computational toxicology approaches to evaluate thousands of chemicals for ED activities. The OECD framework for ED assessment (OECD [2018]) requires animal testing at higher levels, where relevant in vitro alternatives are missing e.g. for developmental, reproductive, neurological and immune effects. However, such follow-up testing is not possible for the cosmetics industry especially in the EU due to the complete animal testing ban which came into force in March 2013 (EU [2009]). Even for other industries, animal models are not suitable for assessing ED effects due to issues relating to ethics, capacity, speed and relevance (Patisaul et al. [2018]). Therefore, chemicals which cannot be evaluated using in vivo method must be assessed using alternative methods e.g. in silico and in vitro methods listed in Levels 1 and 2 of the framework described in the OECD 150 test guideline (OECD [2018]).
(§2) The performance of different in silico models for ED effects tends to be evaluated on single model for a single effect, such as ER or AR binding, agonism or antagonism (normally by the developer), or a limited number of models using multiple chemicals (Weyrich et al. [2022]). Multi-organisation collaborations have also evaluated multiple models for a specific effect e.g. ER (Mansouri et al. [2016]) and AR (Mansouri et al. [2020]) effects. Therefore, we have conducted a side-by-side comparison of multiple different in silico models covering three pathways in ED, namely ER, AR and aromatase inhibition and compared these with ToxCast-derived final calls, as well as with results from in vitro assays. The efficiency of the in silico models was evaluated as a metric for the ability of the in silico model to generate concrete predictions. […] In vivo data were available for some but not all chemicals; therefore, an evaluation of the performance of the methods was made by comparing the derived overall calls from in silico models with those from the ToxCast database. The final call for each chemical evaluated in the ToxCast assays was made by considering the active-flagged assays and the corresponding cytotoxicity levels, the ToxCast Pathway Model (Browne et al. [2015]) and the CERAPP Potency Level (Mansouri et al. [2016]) for ER effects and the ToxCast Pathway Model (Kleinstreuer et al. [2017]) for AR effects (see Online Resource 1 Supplementary Tables 2, 4 and 6 for the outcome of the ER, AR and aromatase ToxCast assays, additional literature and final calls for each chemical and target).

AR [3] = experiment: ToxCast AR assays and final ToxCast call; details: for Final "true" call (ToxCast): AR effects, from active assays, cytotoxicity and pathway model; for ToxCast result: AR overall call from Supplementary Table 4; for Final "true" call (ToxCast) AR: from ToxCast assays and ToxCast Pathway Model
Text: as §1, §2

aromatase [4] = experiment: ToxCast aromatase assays (TOX21_Aromatase_Inhibition) and final ToxCast call; format: cell-based; details: for ToxCast result: aromatase overall ToxCast call; for Final "true" call (ToxCast) Aromatase inhibition: from ToxCast assays
Text: as §2
Aromatase represents only one enzyme involved in steroidogenesis (the conversion of androgens to oestrogens); therefore, the aromatase assay detects effects on 17β-oestradiol production only. […] It is a cell-based assay in which MCF-7 cells are incubated with the test chemical for 24 h before measuring aromatase activities indirectly via a luciferase-based reporter endpoint which is dependent on the binding of the oestradiol–ER complex to the oestrogen response element. A decrease in luciferase activity can occur as a result of direct inhibition of aromatase (preventing the production of oestradiol) or by preventing oestradiol from binding to the ER and thus the binding to the oestrogen RE which initiates the production of luciferase (Lui et al. [2008]).

ER [5] = test system: ER; parameters: method as in US EPA ToxCast; details: ref US EPA ToxCast, cited from earlier work; for ToxCast 1: (Comments), efficacy: borderline: less than 50% efficacy; for ToxCast 1: (Active assays), ER assay listed as active: each listed assay name = active-flagged assay
ER [6] = test system: ER; parameters: method as in Mansouri et al. 2016; details: ref Mansouri et al. 2016; cited from earlier work
AR [7] = test system: AR; parameters: method as in ToxCast; details: ref ToxCast, cited from earlier work; for ToxCast conclusion from assays result: AR sheet; for ToxCast 1: (Active assays), number of positive assays / assays run: ToxCast AR assays
aromatase [8] = test system: aromatase; parameters: method as in US EPA ToxCast; details: ref US EPA ToxCast, cited from earlier work
ERα [9] = molecular target: T1, ERα (Homo sapiens, UniProt P03372); experiment: YES (Yeast oestrogen screen) assay, agonist and antagonist mode; details: YES antagonist assay
T1 sequence (P03372 1-595): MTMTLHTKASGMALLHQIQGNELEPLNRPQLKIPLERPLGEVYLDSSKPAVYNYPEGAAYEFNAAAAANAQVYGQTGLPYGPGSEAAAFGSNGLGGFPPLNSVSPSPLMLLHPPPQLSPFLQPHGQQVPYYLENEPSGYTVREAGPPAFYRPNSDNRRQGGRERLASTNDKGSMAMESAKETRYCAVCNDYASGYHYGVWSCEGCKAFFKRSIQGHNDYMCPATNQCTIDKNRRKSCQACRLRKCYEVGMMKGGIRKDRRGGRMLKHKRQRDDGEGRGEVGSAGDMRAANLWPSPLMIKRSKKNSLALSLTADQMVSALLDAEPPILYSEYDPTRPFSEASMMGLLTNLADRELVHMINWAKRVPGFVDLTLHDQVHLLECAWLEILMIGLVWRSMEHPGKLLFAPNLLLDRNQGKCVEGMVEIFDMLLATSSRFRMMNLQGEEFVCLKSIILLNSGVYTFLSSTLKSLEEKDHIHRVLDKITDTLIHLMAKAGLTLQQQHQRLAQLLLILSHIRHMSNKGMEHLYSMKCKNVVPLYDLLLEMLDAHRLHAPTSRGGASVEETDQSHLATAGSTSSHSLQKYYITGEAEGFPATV
Protocol: The YES/YAS XL (Xtra Lyticase) assay kit from Xenometrix AG (Allschwil, Switzerland) was conducted according to the Supplier’s instructions.
In the YES assay, human ERα is integrated in the yeast (Saccharomyces cerevisiae) chromosome, and for the YAS assay human AR is integrated (Routledge and Sumpter 1996; Sohoni and Sumpter 1998). […] This enzyme then converts a yellow substrate to a purple metabolite, which can be measured colorimetrically.
Growing yeast cells stably transformed with either hERα (YES) or hAR (YAS) and a β-galactosidase reporter system were exposed to a range of concentrations of each test compound. […] The positive control chemicals for agonistic effects were 17-β estradiol for YES and 5α-dihydrotestosterone for YAS. […] A combination of a fixed concentration of positive control and a range of concentrations of each test chemical were tested. The cells were incubated with each treatment for 18 h at 31°C. The cells were lysed in the presence of the yellow β-galactosidase-substrate, chlorophenol red-β-D-galactopyranoside (CPRG). Yeast cell growth was assessed prior to addition of the lysis buffer by measuring the absorbance at 690 nm. The production of the red metabolite of CPRG was determined by measuring the absorbance at 570 nm. It was corrected for diffraction by cells and debris by a simultaneous measurement at 690 nm. The results were evaluated for estrogenic and androgenic agonistic and antagonistic activity, as well as for yeast growth inhibition or cytotoxicity.
An IR value ≥ IR10 in the YES or YAS agonist assay indicates an agonistic effect (IR10 is defined as the IR which is 10% of (IR max - IR solvent) above the IR solvent. An IR value ≤ IR50 in the YES or YAS antagonist assay indicates a possible antagonistic effect (IR50 is defined as 50% of (IR control - IR solvent), where the IR control is at the corresponding fixed concentration of agonist used: 3.3 × 10^-10 M 17-β estradiol and 3.3 × 10^-9 M 5α-dihydrotestosterone, respectively). […]

ERα [10] = molecular target: T1, ERα; experiment: (anti-)ERα CALUX receptor transactivation assay; format: cell-based; parameters: expressed in transfected cells; host or cells: CALUX cells (U2-OS is named only for the cytotoxicity CALUX)
Protocol: The human CALUX® assays were used to measure the impact of test compounds on estrogen and androgen pathways. […] Chemicals can activate (or inactivate, in the case of an antagonistic activity) a ligand-specific pathway by binding to the receptor (ER, AR), after which the receptor-ligand complex binds to specific DNA REs […], resulting in increased (or decreased) cellular expression of a marker protein (e.g., luciferase).
Chemicals were dissolved and diluted in DMSO. […] The cytotoxicity of each test chemical was assessed using the U2-OS based cytotoxicity CALUX bioassay. Concentrations causing >20% reduction of luminescence were considered cytotoxic. […] Luciferase production was quantified by measuring luminescence following addition of luciferin. For antagonist assays, a fixed concentration of receptor agonist was co-incubated with a range of concentrations of the test chemical. […] For the AR assays, dihydrotestosterone was the positive control for agonistic effects and flutamide was the positive control for antagonist effects.
Each test chemical was tested in triplicates in two independent experiments.

ER [11] = test system: ER; parameters: method as in Browne, et al (2015); details: ref Browne, et al (2015), cited from earlier work; for ToxCast Pathway Model (AUC): as agonist where given, value above 0.1 = significant interaction
AR [12] = details: AR pathway model; ref Kleinstreuer et al (2017) 10.1021/acs.chemrestox.6b00347; cited from earlier work
[13] = read-out: Steroidogenesis Androgenicity LEC
[14] = read-out: Steroidogenesis Estrogenicity LEC

SMILES	aromatase inhibitory action (aromatase [1])	minimal effective concentration (H295R cells; [13])	minimal effective concentration (H295R cells; [14])	Final "true" call (ToxCast) ER (ER [2])	ToxCast result (ER) (ER [2])	Final "true" call (ToxCast) (AR [3])	ToxCast result (AR [3])	Final "true" call (ToxCast) AR (AR [3])	ToxCast result (aromatase [4])	Final "true" call (ToxCast) Aromatase inhibition (aromatase [4])	ToxCast 1: (Comments), efficacy (ER [5])	ToxCast 1: (Active assays), ER assay listed as active (ER [5])	ToxCast 1: (Active assays), positive/total ER assays (ER [5])	ToxCast conclusion from assays result (ER [5])	CERAPP Potency Level (ER [6])	ToxCast conclusion from assays result (AR [7])	ToxCast 1: (Active assays), number of positive assays / assays run (AR [7])	ToxCast (Aromatase assays), positive/total (aromatase [8])	ToxCast Pathway Model (AUC) (ER [11])	ToxCast Pathway Model interaction (ER [11])	also measured
CC/C(=C(\c1ccccc1)c1ccc(OCCNC)cc1)c1ccccc1 [N-desmethyl-tamoxifen]	potent inhibitors																				
CCN(CC)c1ccc(C(=O)c2ccccc2C(=O)O)c(O)c1 [DEABA, 2-(4-(diethylamino)-2-hydroxybenzoyl)benzoic acid]		> 100 µM	> 100 µM	Negative	Negative	Negative	Negative	Negative	Negative	Negative	Boarderline: less than 50% efficacy (28.5%)	TOX21_ERa_LUC_VM7_Agonist	1/8 positive	Endocrine Disruption Potential.Significant Estrogen Receptor activity seen	Negative	Endocrine Disruption Potential.Significant Estrogen Receptor activity seen	1/9 positive	0/2 positive			ER binding outcome (human (non-selective) ER): negative; inhibition of control specific binding to the ER (human (non-selective) ER; single-dose screening, 10 µM): less than -25%; efficacy (assays Comments) (AR [7]; TOX21_AR_BLA_Antagonist_ratio): Boarderline: less than 50% efficacy (38.5%); ER antagonism in the YES assay (ERα [9]): inconclusive; Lowest Effective Concentration (LEC), ER agonism (ERα [10]): 56 µM
CC/C(=C(\c1ccc(O)cc1)c1ccc(OCCNC)cc1)c1ccccc1 [endoxifen]	potent inhibitors																				
CC/C(=C(\c1ccccc1)c1ccc(OCCN(C)C)cc1)c1ccccc1 [Tamoxifen, reference compound]	no appreciable inhibition	> 3.16 µM	> 1 µM	Positive for agonism and antagonism	ER agonist and antagonist	Inconclusive			Positive	Positive			19/21 positive	Endocrine Disruption Potential.Significant Estrogen Receptor activity seen	Moderate antagonist	Endocrine Disruption Potential.Significant Estrogen Receptor activity seen	9/17 Positive		0.45	significant interaction	ToxCast 1: (assays Comments) (AR [7]; comment on all active AR assays): There is binding, but only one concentration above the baseline, (noisy data); ToxCast Pathway Model (AUC) (AR [12]): AUC = 0.042, then there is no significant interaction.; ToxCast (Aromatase assays), assay listed as active (aromatase [8]; each listed assay name = active assay): TOX21_Aromatase_Inhibition; also recorded: TOX21_Aromatase_Inhibition_viability
O=C(O)c1ccc(C(=O)O)cc1 [Terephthalic acid, terephthalic acid]		> 100 µM	> 100 µM	Negative	Negative	Negative	Negative	Negative	Negative	Negative	Boarderline: less than 50% efficacy (31.34%)	OT_ER_ERaERb_1440	1/18 Positive		Negative		0/14 positive	0/2 positive	0	NO significant interaction	ToxCast Pathway Model (AUC) (AR [12]): AUC = 0, then there is no significant interaction.

— article PMC10761396, “Evaluation of new alternative methods for the identification of estrogenic, androgenic and steroidogenic effects: a comparative in vitro/in silico study” (Archives of Toxicology, 2023)
